Assay results from patent US10222370B2, “Screening assay for choice of prebiotic to prevent/treat gastrointestinal and systemic diseases” (Rush University Medical Center, priority 2014, dated 2019).
“Also recorded” adds a separate entry of the source.

Legend:
Assay type in all cases: cell-based, human
[1] = system: T84 monolayers co-cultured with CD3/28-activated PBMC; assay: T84/PBMC co-culture, barrier integrity by transepithelial electrical resistance (TER); conditions: for TER of T84 monolayers: apical exposure, 24 h and 48 h, vs medium control; for PBMC-induced disruption of intestinal epithelial barrier integrity (injurious effects of activated PBMC): PBMC from food allergy patients, agonist on apical side of T84 cells, FIG. 3
Experimental: (§1) The T84 cells are grown in DMEM/F-12 (1:1) supplemented with GlutaMAX®, 10% fetal bovine serum and […] penicillin/streptomycin. (T84 cells (human colorectal carcinoma cell line, ATCC® CCL-248™, Manassas, Va., USA). T84 cells were seeded in 12-well transwell insert filters (Coming Inc., NY, USA) and cultured in T84 cell medium for 3-4 weeks till co-culture with PBMC. Transepithelial electrical resistance (TER) was measured during culture, which generally increases to >1500 Ω×cm^2 and becomes stable after 3-4 weeks of culture. When TER was ≥2000 Ω×cm^2, T84 monolayers 14 were co-cultured with 1.5×10^6 PBMC 16 in the basolateral chamber.
(§2) The PBMC 16 for use in the co-cultures are isolated from 20 mL fresh blood from healthy controls (n=6) and subjects with food allergy (n=8) (Table 1). The average age of healthy controls was 36 (range 24-54) vs. 51 (range 26-74) for food allergic subjects (P>0.05). PBMC were isolated by density gradient centrifugation using lymphocyte separation medium according to manufacturer's protocol (Cellgro, Mediatec, Inc., Manassas, Va., USA). PBMC were collected in RPMI1640 supplemented with L-glutamine (Gibco), 2.5% fetal bovine serum, 1% penicillin/streptomycin and 1% sodium pyruvate (Sigma, St. Louis, Mo., USA) (PBMC medium) at 1×10^6 cell/mL.
(§3) T84/PBMC co-cultures were maintained in PBMC medium. PBMC were stimulated using CD3 and CD28 antibodies (clone OKT3 and CD28.2, 0.2 μg/mL; eBioscience, San Diego, Calif., USA) and simultaneously IEC were stimulated apically with Pam3CSK4, LPS or type C CpG oligonucleotide M362 (Invivogen, San Diego, Calif., USA) as previously described. Cultures were maintained at 37° C./5% CO2 for indicated time points.
(§4) The barrier integrity of T84 monolayers was assessed by measuring the TER and paracellular permeability to 4 kDa FITC-dextran. In short, TER was measured using a dual electrode system designed for cell culture insert analysis (EVOM; World Precision Instruments, Sarasota, Fla.) prior to co-culture and at indicated time points during co-culture. Data is reported as percentage of the initial TER value measured before co-culture. For assessment of permeability, T84 monolayers were separated from PBMC and cultured in PBMC medium for 1 h. The monolayers were then apically exposed to 1 mg/mL 4 kDa FITC-dextran (Sigma) and basolateral supernatants were collected after 60 min. FITC-dextran was measured at excitation wavelength 485 nm and emission wavelength 520 nm. The 4 kDa FITC-dextran flux was expressed as pmol/(h×cm^2).
In some experiments, PBMC are stimulated using antibodies against CD3 and CD28 and T84 cell monolayers were simultaneously exposed to synthetic TLR ligands or fermentation product 12 (co-culture of stool samples without or with different prebiotics). SCFA content (acetate, propionate and butyrate) in the fermentation products (“Fermenta”) 12 was analyzed by HPLC. TER was measured at t=0 h, t=4 h, t=18 h and t=24 h to monitor changes in the barrier integrity of the T84 monolayers. Non-limiting example of prebiotics include commercially available inulin and fructose oligosaccharides (FOS) that promote production of Butyrate by intestinal bacteria, galactose oligosaccharides (GOS) that promote growth of bifidobacteria in the intestine or prebiotics like resistant starch, corn arbionoxylan that promotes propionate. Other prebiotics may also be used.

[2] = system: T84 monolayers co-cultured with CD3/28-activated PBMC; assay: T84/PBMC co-culture, paracellular permeability to 4 kDa FITC-dextran; conditions: PBMC from food allergic subjects; 48 h co-culture; vs medium control
Experimental: as §1, §2
T84/PBMC co-cultures were maintained in PBMC medium. […]
as §4, with “For assessment of permeability, T84 monolayers were separated from PBMC and cultured in PBMC medium for 1 h. The monolayers were then apically exposed to 1 mg/mL 4 kDa FITC-dextran (Sigma) and basolateral supernatants were collected after 60 min.” left out

T84/PBMC co-cultures = assay: Cytokine production in T84/PBMC co-cultures with apical TLR ligands (ELISA); conditions: for IL-10/IL-13 ratio / IFN-γ/IL-13 ratio / IL-10/IFN-γ: T84/PBMC co-cultures; for IL-10/IL-13 ratio / IFN-γ/IL-13 ratio: vs medium; for IFN-γ/IL-13 ratio / IL-6 / IFN-γ / IL-8 / IL-10 / IL-13 / TNF-α: 24 h; for IL-10/IFN-γ: apical exposure; for IL-6 / IFN-γ / IL-8 / IL-10 / IL-13 / TNF-α: T84/PBMC, mean ± SEM
Experimental: as §1, §2, §3
(§5) Cytokine levels were measured by ELISA. IL-6, IL-8, IL-10, IL-13, IFN-γ and TNF-α were measured using the Ready-Set-Go!® ELISA kit from eBioscience according to manufacturer's protocol (eBioscience, Inc., San Diego, Calif., USA).
(§6) To evaluate whether epithelial TLR ligation modulates cytokine production by the PBMC, basolateral supernatants were collected 24 h after co-culture. Exposure of CD3/28-activated PBMC in the absence of IEC to TLR ligands served as a control to evaluate the contribution of IEC in modulating the cytokine production by PBMC. First we evaluated the production of IFN-γ and IL-13 as a reflection of a Th1 and Th2 type effector response (Table 3). No significant changes in the production of IFN-γ or IL-13 were observed, though IFN-γ production by the PBMC from food allergic subjects tended to be lower in T84/PBMC co-cultures (P=0.093). […] This was not observed when PBMC were stimulated with CpG DNA in absence of T84 cells (FIG. 7B).

PBMC = assay: Cytokine production by CD3/28-activated PBMC in absence of T84 cells (ELISA); conditions: for IFN-γ / IL-6 / IL-8 / IL-10 / IL-13 / TNF-α / IFN-γ/IL-13 ratio: PBMC in absence of T84 cells, 24 h; for IFN-γ / IL-6 / IL-8 / IL-10 / IL-13 / TNF-α: mean ± SEM; for IL-10/IL-13 ratio: absence of T84 cells
Experimental: as §2, §3, §5, §6

[3] = PBMC from food allergic subjects

type C CpG oligonucleotide M362 [CpG DNA]
TER of T84 monolayers [1, 3]: prevented PBMC-induced barrier disruption; also recorded: increased | PBMC-induced disruption of intestinal epithelial barrier integrity (injurious effects of activated PBMC) ([1]; listed as TLR9 agonist): prevented | PBMC-induced disruption of intestinal epithelial barrier integrity (injurious effects of activated PBMC) ([1]; listed as TLR-9 agonist): significantly blunted | TER of T84 monolayers ([1]; PBMC from healthy controls): prevented PBMC-induced barrier disruption; also recorded: increased | permeability of T84 monolayers to 4 kDa FITC-dextran [2]: reduced epithelial permeability | production of IL-6, IL-8 and TNF-α by PBMC (T84/PBMC co-cultures; T84/PBMC co-culture, PBMC from both healthy controls and food allergic subjects, in words): suppressed | IL-10/IL-13 ratio (T84/PBMC co-cultures; PBMC from food allergic patients): significantly increased | IFN-γ/IL-13 ratio (T84/PBMC co-cultures; food allergic subjects): enhanced; also recorded: increased | IL-10/IFN-γ (T84/PBMC co-cultures; food allergic subjects): 0.19±0.06 | IFN-γ/IL-13 ratio (T84/PBMC co-cultures; healthy controls): enhanced; also recorded: increased | IL-10/IFN-γ (T84/PBMC co-cultures; healthy controls): 0.12±0.06 | IL-10/IL-13 ratio (T84/PBMC co-cultures; healthy donor PBMC): tended to increase | IL-6 (T84/PBMC co-cultures; FA (food allergy) PBMC): 6400 ± 1671 pg/mL | IFN-γ (T84/PBMC co-cultures; FA PBMC): 7040 ± 2454 pg/mL | IL-8 (T84/PBMC co-cultures; FA PBMC): 15733 ± 4509 pg/mL | IL-10 (T84/PBMC co-cultures; FA PBMC): 834 ± 233.6 pg/mL | IL-13 (T84/PBMC co-cultures; FA PBMC): 35.9 ± 10.5 pg/mL | TNF-α (T84/PBMC co-cultures; FA PBMC): 2092 ± 493 pg/mL | IL-6 (T84/PBMC co-cultures; HC (healthy control) PBMC): 7291 ± 1376 pg/mL | IFN-γ (T84/PBMC co-cultures; HC PBMC): 10731 ± 3289 pg/mL | IL-8 (T84/PBMC co-cultures; HC PBMC): 20758 ± 5247 pg/mL | IL-10 (T84/PBMC co-cultures; HC PBMC): 652.8 ± 105.5 pg/mL | IL-13 (T84/PBMC co-cultures; HC PBMC): 27.5 ± 7.5 pg/mL | TNF-α (T84/PBMC co-cultures; HC PBMC): 2531 ± 552 pg/mL | Th1/Th2 balance of the effector immune response (T84/PBMC co-cultures; apical exposure of T84 monolayers, FIG. 4, listed as TLR9 agonist): shifts the balance of the effector immune response away from the allergy-associated Th2 response; also recorded: reversed the Th1/Th2 balance away from the allergic TH2 phenotype | IFN-γ (PBMC; FA): 3945 ± 1543 pg/mL | IL-6 (PBMC; FA): 5940 ± 2450 pg/mL | IL-8 (PBMC; FA): 25420 ± 6779 pg/mL | IL-10 (PBMC; FA): 477.3 ± 157.7 pg/mL | IL-13 (PBMC; FA): 39.9 ± 12.8 pg/mL | TNF-α (PBMC; FA): 1199 ± 437 pg/mL | IFN-γ (PBMC; HC): 2394 ± 966 pg/mL | IL-6 (PBMC; HC): 2564 ± 824 pg/mL | IL-8 (PBMC; HC): 19912 ± 2430 pg/mL | IL-10 (PBMC; HC): 391.9 ± 149.3 pg/mL | IL-13 (PBMC; HC): 19.5 ± 3.8 pg/mL | TNF-α (PBMC; HC): 1024 ± 213 pg/mL | IFN-γ/IL-13 ratio (PBMC; food allergic subjects): not observed | IFN-γ/IL-13 ratio (PBMC; healthy controls): not observed | IL-10/IL-13 ratio (PBMC; [3]): did not affect | IL-10/IL-13 ratio (PBMC; PBMC from healthy controls): enhanced | production of IL-6, IL8 and TNF-α (PBMC; direct stimulation of PBMC from food allergic subjects, in words): did not suppress | pro-inflammatory cytokine production (PBMC; direct stimulation of PBMC from healthy controls, in words): reduced
